Patent US20060069132A1, “Azolecarboxamide herbicides” (priority 2004, published 2006)

Tests used:
ducksalad = assay: Test B flooded paddy test; format: in vivo, Heteranthera limosa; details: 1000 g ai/ha, scale 0 to 100 (0 no effect, 100 complete control)
Summary of the method: (§1)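 Paddy species grown to the 2-leaf stage under flooding; blackgrass sprayed postemergence at 2–18 cm (1- to 4-leaf stage). Plants kept in a greenhouse for 13 to 15 days, then visually rated against controls on 0 (no effect) to 100 (complete control).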

barnyardgrass [1] = assay: Test B pre-/postemergence herbicide test; format: in vivo, Echinochloa crus-galli; details: for Barnyardgrass plant response rating: postemergence
Summary of the method: (§2)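 Test chemicals in a non-phytotoxic solvent mixture with surfactant were applied preemergence to seeded species and postemergence to plants 2-18 cm tall (1- to 4-leaf stage); rice and barnyardgrass were also tested in a flooded paddy at the 2-leaf stage. Visual rating versus controls after 13-15 days in greenhouse, scale 0 (no effect) to 100 (complete control).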

wheat = assay: Test B postemergence herbicide test; format: in vivo, Triticum aestivum; set-up: key to Wheat plant response rating: 0 = no effect, 100 = complete control; details: for Wheat plant response rating: postemergence
Summary of the method: (§3)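 Each value is a visual 0–100 response rating taken against controls 13 to 15 days after treatment in the greenhouse. Plants received formulated chemical postemergence at the 1- to 4-leaf stage or, in flooded paddy, at the 2-leaf stage.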

barnyardgrass [2] = assay: Test B flooded paddy test; format: in vivo, Echinochloa crus-galli; details: 1000 g ai/ha, scale 0 to 100 (0 no effect, 100 complete control)
Summary of the method: as §1

wild oat = assay: Test B postemergence herbicide test; format: in vivo, Avena fatua; details: for Oat, Wild plant response rating: postemergence
Summary of the method: as §3

[3] = test system: small flower umbrella sedge; assay: Test B flooded paddy test; format: in vivo, Cyperus difformis; details: 1000 g ai/ha, scale 0 to 100 (0 no effect, 100 complete control)
Summary of the method: as §1

pigweed = assay: Test B pre-/postemergence herbicide test; format: in vivo, Amaranthus retroflexus; details: for Pigweed plant response rating: postemergence
Summary of the method: (§4)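 Greenhouse pot assay with simultaneous preemergence (treated seed) and postemergence (2–18 cm seedlings) applications of surfactant-containing, non-phytotoxic solvent formulations. Response scored visually 13–15 days later on a 0–100 scale, 100 meaning complete control.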

rice = assay: Test B flooded paddy test; format: in vivo, Oryza sativa; details: 1000 g ai/ha, scale 0 to 100 (0 no effect, 100 complete control)
Summary of the method: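 Greenhouse test; postemergence application to plants at 1–4 leaves (2–18 cm); paddy species at 2 leaves; evaluated visually vs controls at 13–15 days; scale 0–100 (100 = complete control).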

giant foxtail = assay: Test B pre-/postemergence herbicide test; format: in vivo, Setaria faberi; details: for Foxtail, Giant plant response rating: postemergence
Summary of the method: as §4

lambsquarters = assay: Test B pre-/postemergence herbicide test; format: in vivo, Chenopodium album; details: for Lambsquarters plant response rating: postemergence
Summary of the method: as §4

velvetleaf = assay: Test B pre-/postemergence herbicide test; format: in vivo, Abutilon theophrasti; details: for Velvetleaf plant response rating: postemergence
Summary of the method: as §4

large crabgrass = assay: Test B pre-/postemergence herbicide test; format: in vivo, Digitaria sanguinalis; details: for Crabgrass, Large plant response rating: postemergence
Summary of the method: as §4

morningglory = assay: Test B pre-/postemergence herbicide test; format: in vivo, Ipomoea coccinea; details: for Morningglory plant response rating: postemergence
Summary of the method: as §2

Surinam grass = assay: Test B pre-/postemergence herbicide test; format: in vivo, Urochloa decumbens; details: for Surinam Grass plant response rating: postemergence
Summary of the method: as §4

cocklebur = assay: Test B pre-/postemergence herbicide test; format: in vivo, Xanthium strumarium; details: for Cocklebur plant response rating: postemergence
Summary of the method: as §2

[4] = 500 g ai/ha, visual rating 0-100, 0 no effect, 100 complete control, preemergence
[5] = Postemergence, 500 g ai/ha, visual rating after 13 to 15 days, scale 0 (no effect) to 100 (complete control)
[6] = 125 g ai/ha, visual rating, scale 0 (no effect) to 100 (complete control)
[7] = preemergence, 125 g ai/ha, 0 to 100 scale, 0 is no effect, 100 is complete control
[8] = 125 g ai/ha, 0 = no effect, 100 = complete control, preemergence
[9] = 500 g ai/ha, visual rating, 0 = no effect, 100 = complete control, preemergence
[10] = 500 g ai/ha, scale 0 to 100, 0 is no effect, 100 is complete control

In the case of `CC(=NO)c1cccc(NC(=O)c2cc(C(C)(C)C)nn2C)c1` [Compound 102], the “Ducksalad plant response rating” value (ducksalad; visual rating, 13 to 15 days) is reported as 90, the “Plant response rating, Barnyardgrass” value (barnyardgrass [1]; [4]) is reported as 90 and the “Plant response rating, Barnyardgrass” value (barnyardgrass [1]; [5]) is reported as 40. The “Barnyardgrass plant response rating” value (barnyardgrass [1]; [6]) was 0, the “Plant response rating, Barnyardgrass” value (barnyardgrass [1]; [7]) was 80 and the “Plant response rating, Wheat” value (wheat; [5]) was 20. The “Wheat plant response rating” value (wheat; [6]) was 0, the “Barnyardgrass plant response rating” value (barnyardgrass [2]; visual rating, 13 to 15 days) was 80 and the “Plant response rating, Oat, Wild” value (wild oat; [5]) was 40. For the same compound, the “Oat, Wild plant response rating” value (wild oat; [6]) was 20, the “Sedge, Umbrella plant response rating” value ([3]; visual rating, 13 to 15 days) was 100 and the “Plant response rating, Pigweed” value (pigweed; [4]) was 100. For the same compound, the “Plant response rating, Pigweed” value (pigweed; [5]) was 100, the “Pigweed plant response rating” value (pigweed; [6]) was 80 and the “Plant response rating, Pigweed” value (pigweed; [7]) was 90. For the same compound, the “Rice plant response rating” value (rice; visual rating, 13 to 15 days) was 50, the “Plant response rating, Foxtail, Giant” value (giant foxtail; [4]) was 80 and the “Plant response rating, Foxtail, Giant” value (giant foxtail; [5]) was 30. For the same compound, the “Foxtail, Giant plant response rating” value (giant foxtail; [6]) was 10, the “Plant response rating, Foxtail, Giant” value (giant foxtail; [7]) was 30 and the “Plant response rating, Lambsquarters” value (lambsquarters; [4]) was 100. For the same compound, the “Plant response rating, Lambsquarters” value (lambsquarters; [5]) was 20, the “Lambsquarters plant response rating” value (lambsquarters; [6]) was 10 and the “Plant response rating, Lambsquarters” value (lambsquarters; [7]) was 100. The “Plant response rating, Velvetleaf” value (velvetleaf; [4]) was 70, the “Plant response rating, Velvetleaf” value (velvetleaf; [5]) was 20 and the “Velvetleaf plant response rating” value (velvetleaf; [6]) was 0. The “Plant response rating, Velvetleaf” value (velvetleaf; [7]) was 0, the “Plant response rating, Crabgrass, Large” value (large crabgrass; [4]) was 100 and the “Plant response rating, Crabgrass, Large” value (large crabgrass; [5]) was 70. The “Crabgrass, Large plant response rating” value (large crabgrass; [6]) was 10, the “Plant response rating, Crabgrass, Large” value (large crabgrass; [7]) was 100 and the “Plant response rating, Morningglory” value (morningglory; [4]) was 100. For the same compound, the “Plant response rating, Morningglory” value (morningglory; [5]) was 30, the “Morningglory plant response rating” value (morningglory; [6]) was 10 and the “Plant response rating, Morningglory” value (morningglory; [7]) was 50. The “Plant response rating, Surinam Grass” value (Surinam grass; [4]) was 40, the “Plant response rating, Surinam Grass” value (Surinam grass; [5]) was 100 and the “Surinam Grass plant response rating” value (Surinam grass; [6]) was 70. For the same compound, the “Plant response rating, Surinam Grass” value (Surinam grass; [7]) was 20, the “Plant response rating, Cocklebur” value (cocklebur; [4]) was 0 and the “Plant response rating, Cocklebur” value (cocklebur; [5]) was 50. The “Cocklebur plant response rating” value (cocklebur; [6]) was 30 and the “Plant response rating, Cocklebur” value (cocklebur; [7]) was 0.
For `CCn1nc(C(C)(C)C)cc1C(=O)Nc1cccc(OC(C)C)c1` [Compound 273], the “Ducksalad plant response rating” value (ducksalad) was 90, the “Barnyardgrass plant response rating (0 to 100 scale)” value (barnyardgrass [1]; [8]) was 30 and the “Plant response rating, Barnyardgrass” value (barnyardgrass [1]; [9]) was 90. The “Barnyardgrass plant response rating” value (barnyardgrass [1]; [6]) was 20, the “Barnyardgrass plant response rating” value (barnyardgrass [1]; [10]) was 70 and the “Wheat plant response rating” value (wheat; [6]) was 30. For the same compound, the “Wheat plant response rating” value (wheat; [10]) was 40, the “Barnyardgrass plant response rating” value (barnyardgrass [2]) was 60 and the “Oat, Wild plant response rating” value (wild oat; [6]) was 30. The “Oat, Wild plant response rating” value (wild oat; [10]) was 50, the “Sedge, Umbrella plant response rating” value [3] was 80 and the “Pigweed plant response rating (0 to 100 scale)” value (pigweed; [8]) was 70. The “Plant response rating, Pigweed” value (pigweed; [9]) was 100, the “Pigweed plant response rating” value (pigweed; [6]) was 80 and the “Pigweed plant response rating” value (pigweed; [10]) was 90. For the same compound, the “Rice plant response rating” value (rice) was 40, the “Foxtail, Giant plant response rating (0 to 100 scale)” value (giant foxtail; [8]) was 50 and the “Plant response rating, Foxtail, Giant” value (giant foxtail; [9]) was 90. For the same compound, the “Foxtail, Giant plant response rating” value (giant foxtail; [6]) was 10, the “Foxtail, Giant plant response rating” value (giant foxtail; [10]) was 20 and the “Lambsquarters plant response rating (0 to 100 scale)” value (lambsquarters; [8]) was 70. For the same compound, the “Plant response rating, Lambsquarters” value (lambsquarters; [9]) was 100, the “Lambsquarters plant response rating” value (lambsquarters; [6]) was 60 and the “Lambsquarters plant response rating” value (lambsquarters; [10]) was 90. For the same compound, the “Velvetleaf plant response rating (0 to 100 scale)” value (velvetleaf; [8]) was 10, the “Plant response rating, Velvetleaf” value (velvetleaf; [9]) was 40 and the “Velvetleaf plant response rating” value (velvetleaf; [6]) was 40. For the same compound, the “Velvetleaf plant response rating” value (velvetleaf; [10]) was 70, the “Crabgrass, Large plant response rating (0 to 100 scale)” value (large crabgrass; [8]) was 80 and the “Plant response rating, Crabgrass, Large” value (large crabgrass; [9]) was 100. For the same compound, the “Crabgrass, Large plant response rating” value (large crabgrass; [6]) was 30, the “Crabgrass, Large plant response rating” value (large crabgrass; [10]) was 50 and the “Morningglory plant response rating (0 to 100 scale)” value (morningglory; [8]) was 0. For the same compound, the “Plant response rating, Morningglory” value (morningglory; [9]) was 10, the “Morningglory plant response rating” value (morningglory; [6]) was 20 and the “Morningglory plant response rating” value (morningglory; [10]) was 70. For the same compound, the “Surinam Grass plant response rating (0 to 100 scale)” value (Surinam grass; [8]) was 20, the “Plant response rating, Surinam Grass” value (Surinam grass; [9]) was 50 and the “Surinam Grass plant response rating” value (Surinam grass; [6]) was 20. For the same compound, the “Surinam Grass plant response rating” value (Surinam grass; [10]) was 40, the “Cocklebur plant response rating (0 to 100 scale)” value (cocklebur; [8]) was 0 and the “Plant response rating, Cocklebur” value (cocklebur; [9]) was 0. The “Cocklebur plant response rating” value (cocklebur; [6]) was 20 and the “Cocklebur plant response rating” value (cocklebur; [10]) was 80.
